Here are results for six compounds from article PMC3746831 (Pharmaceutical research, 2013).

Data set [1] in a line: Enzymatic hydrolysis in cornea homogenate. As to conditions: 100 μM prodrug, 0.5mg/mL protein, 34°C.
Data set [2] concerns Epstein-Barr Virus (EBV), Akata. The data set is described as follows: DNA hybridization assay for EBV in Akata cells. Particulars: 72 h; for EC50: read-out: EBV EC50; for EC90: read-out: EBV EC90. Type of data set: cell-based.
For data set [3], the system named is Herpes Simplex Virus 1 (HSV-1), E-377 strain. The data set is described as follows: Plaque reduction assay for HSV-1 in HFF cells. Type of data set: cell-based. Particulars: for EC50: read-out: HSV-1 EC50; for EC90: read-out: HSV-1 EC90. In general terms: In a plaque reduction assay, fewer plaques than in the control indicate reduced infectivity or spread.
Data set [4] has as its system Herpes Simplex Virus 2 (HSV-2), MS strain. Put plainly: Plaque reduction assay for HSV-2 in HFF cells. Type of data set: cell-based. As to conditions: for EC50: read-out: HSV-2 EC50; for EC90: read-out: HSV-2 EC90.
A short description of data set [5]: Enzymatic hydrolysis in iris-ciliary body. As to conditions: 100 μM prodrug, 34°C.
Data set [6] is described as follows: Enzymatic hydrolysis in lens homogenate. Particulars: 100 μM prodrug, 34°C.
For the next data set, the system named is Akata cells. Put plainly: in vitro. Type of data set: cell-based, human.
The next data set concerns HCEC cells. Put plainly: Cellular uptake study on HCEC cells. Type of data set: cell-based, human. Particulars: sodium free DPBS, 37°C, relative to uptake with sodium.
Data set [7] relates to Human Cytomegalovirus (HCMV), AD169 strain. The data set is described as follows: Plaque reduction assay for HCMV in HFF cells. Type of data set: cell-based. Particulars: for EC50: read-out: HCMV EC50, control is GCV; for EC90: read-out: HCMV EC90, control is GCV.
For a further data set, the system named is HFF cells. The data set is described as follows: in vitro. Type of data set: cell-based, human.
A short description of data set [8]: in vitro. Type of data set: cell-based, human. As to conditions: human.
Data set [9] is described as follows: in vitro. Particulars: human. Type of data set: cell-based, human. This is another data set of the same source.
Where [10] appears, read: Akata cells, viral DNA accumulation.
Where [11] appears, read: human gammaherpesvirus 4, Akata.

Where two headings read alike, the source gives them in different places.

As a reminder, the EC50 is the concentration needed to bring the measured effect to its halfway point. A word on the EC90: it is the point of the concentration-response curve where the effect stands at 90%. As usually defined, the CC50 is the concentration giving 50% cytotoxicity. As for `Nc1nc2c(ncn2COCCOC(=O)CCCC[C@@H]2SC[C@@H]3NC(=O)N[C@@H]32)c(=O)[nH]1` [B-ACV, Biotin-acyclovir], in data set [1], the “Cornea Half-life” value is 5.80 ± 0.49 h and the “Cornea Rate constant” value is given as 1.99 ± 0.21 k×10^3 min^−1 mg protein^-1. Also, in [2] (setting [10]), the EC50 is 22.3 µM and the concentration for an effect of 90% (EC90) came out at 52.8 µM. In [3] (E-377 strain, HFF cells), the EC50 was 182 µM and the EC90 was greater than 300 µM. In data set [4] (MS strain, HFF cells), the EC50 was greater than 300 µM and the EC90 was greater than 300 µM. Further, in data set [5], the “Degradation in ICB homogenate (in words)” value is reported as “complete degradation”. Further, the “Degradation in lens homogenate (in words)” value in data set [6] was “complete degradation”. This compound showed a CC50 with Akata cells greater than 60 µM. In addition, the “Uptake in the presence of a sodium free buffer (reduced to)” value in the data set with HCEC cells is recorded as roughly 45%.

In the case of `CCCCCCC(O)CCCCCCCCCCC(=O)OCCOCn1cnc2c(=O)[nH]c(N)nc21` (stereo not shown) [12HS-ACV, 12hydroxystearicacid-acyclovir], the EC50 in [2] (setting [10]) was 35.8 µM; in [3] (E-377 strain, HFF cells) it was 1.16 µM; in data set [4] (MS strain, HFF cells), 0.41 µM; in [7], 101 µM. Besides, the 90% effect concentration (EC90) was 55 µM in data set [2] (setting [10]); 6.24 µM in [3] (E-377 strain, HFF cells); greater than 300 µM in data set [4] (MS strain, HFF cells); 137 µM in data set [7]. The “Increase in antiviral activity against HSV-1 relative to ACV (by EC50)” value in data set [3] (from EC50 values) is reported as “greater than 3 fold”. For the same compound, the “Increase in antiviral activity against HSV-2 relative to ACV (by EC50)” value in data set [4] (from EC50 values) is given as greater than 15 fold. In addition, the CC50 in the data set with Akata cells stood at 47.3 µM.

`Nc1nc2c(ncn2COCCO)c(=O)[nH]1` [ACV, Acyclovir, reference compound]: the CC50 in the data set on HFF cells (human), in “in vitro [8]” and in the data set “in vitro [9]” was greater than 100 µM in each case. For the same compound, the EC50 in [2] (setting [11]) was determined as 12.4 µM; in data set [3] (Human alphaherpesvirus 1, HFF) it was 3.43 µM; in data set [4] (Human alphaherpesvirus 2, HFF) it was 5.98 µM. For the same compound, the EC90 in [2] (setting [11]) is 67.3 µM; in data set [3] (Human alphaherpesvirus 1, HFF) it was greater than 100 µM; in data set [4] (Human alphaherpesvirus 2, HFF), greater than 100 µM.

In the case of `CCCCCCC(O)CC=CCCCCCCCC(=O)OCCOCn1cnc2c(=O)[nH]c(N)nc21` (stereo not shown) [R-ACV, Ricinoleicacid-acyclovir], the CC50 in the data set with HFF cells was greater than 300 µM; in the data set with Akata cells, greater than 60 µM. Also, the EC50 stood at 10.7 µM in data set [2] (setting [10]); 8.3 µM in [3] (E-377 strain, HFF cells); 3.4 µM in data set [4] (MS strain, HFF cells); 46.5 µM in data set [7]. For the same compound, the EC90 in [2] (setting [10]) is 49.5 µM; in data set [3] (E-377 strain, HFF cells) it was 168 µM; in data set [4] (MS strain, HFF cells), 8.89 µM; in data set [7] it was greater than 300 µM.

Regarding `Nc1nc(O)c2ncn(COC(CO)CO)c2n1` [GCV, Ganciclovir, reference compound], the CC50 in “in vitro [8]” was greater than 100 µM.

As to `CCCCCCC(CCCCCCCCCCC(=O)OCCOCn1cnc2c(=O)[nH]c(N)nc21)OC(=O)CCCC[C@@H]1SC[C@@H]2NC(=O)N[C@@H]21` (stereo partly shown) [B-12HS-ACV, Biotin-12hydroxystearicacid-acyclovir], the “Cornea Rate constant” value in data set [1] was 1.78 ± 0.29 k×10^3 min^−1 mg protein^-1. For the same compound, the CC50 with HFF cells is greater than 300 µM; in the data set with Akata cells, greater than 60 µM. Besides, the EC50 in data set [2] (setting [10]) was 37.2 µM; in data set [3] (E-377 strain, HFF cells), less than 0.096 µM; in [4] (MS strain, HFF cells) it was less than 0.096 µM; in data set [7] it was greater than 300 µM. Besides, the EC90 in data set [2] (setting [10]) is greater than 60 µM; in data set [3] (E-377 strain, HFF cells), 0.42 µM; in data set [4] (MS strain, HFF cells), 4.65 µM; in [7] it was greater than 300 µM. The “Uptake in the presence of a sodium free buffer (reduced to)” value with HCEC cells was roughly 41%.
